What was measured:
[1] = tested on: Candida haemulonii complex; assay: Biofilm-growing cells, overall across isolates; assay type: cell-based; settings: for Overall GM-bMIC: geometric mean across strains, values marked * do not include LIP Ch4 (>512); for decrease in activity on going from planktonic to biofilm cells: biofilm MIC versus planktonic MIC
Protocol: (§1) The effect of the compounds on biofilm-growing cells was determined using the previously described microtiter-based technique (Ramage et al., [2001]). The fungi (10^6 yeast cells) were incubated for 48 h at 37°C in 96-well polystyrene microtiter plates (Corning®, Corning Incorporated, USA) containing Sabouraud-dextrose broth to accommodate biofilm formation. Following biofilm formation, the culture medium was aspirated and non-adherent cells removed by thoroughly washing the wells three times with sterile PBS (0.15 M NaCl, 0.01 M phosphate buffer, pH 7.2). Afterwards, the compounds, at the same concentrations used in the planktonic assays, were added to the wells, and the plates were incubated for further 48 h at 37°C. The metabolic activity was then evaluated using a colorimetric assay that measures the metabolic reduction of 2,3-bis (2-methoxy-4-nitro-5-sulfophenyl)-5-[(phenylamino) carbonyl]-2H-tetrazolium hydroxide (XTT; Sigma-Aldrich) to a water-soluble, brown formazan product (Peeters et al., [2008]). The biofilm MIC (bMIC) for each compound was established as the minimal concentration capable of inhibiting 50% of metabolic activity when compared to compound-free wells (Ziccardi et al., [2015]).

Candida duobushaemulonii [2] = assay: Planktonic growth, broth microdilution (CLSI M27-A3), MIC; assay type: cell-based; settings: for GM-MIC: geometric mean of three C. duobushaemulonii isolates; for MIC: planktonic, 48 h, 37°C
Outline: (§2)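 Clinical isolates (nail, blood, urine) grown 48 h at 37°C in Sabouraud-dextrose, then tested by CLSI M27-A3 broth microdilution in RPMI 1640 over 0.0625-32 mg/L, 48 h at 37°C. MIC is the lowest concentration with no visible growth; geometric mean MIC calculated across all isolates.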

[3] = tested on: Candida haemulonii var. vulnera; assay: as above; assay type: cell-based; settings: for GM-MIC: geometric mean of three C. haemulonii var. vulnera isolates; for MIC: planktonic, 48 h, 37°C
Outline: as §2

Candida haemulonii [4] = assay: as above; assay type: cell-based; settings: for GM-MIC: geometric mean of three C. haemulonii isolates; for MIC: planktonic, 48 h, 37°C
Outline: as §2

C. haemulonii complex = assay: Planktonic growth, overall across all nine isolates; assay type: cell-based, Candida haemulonii complex; settings: geometric mean across all nine strains; for MIC: in μM, read-out: Overall GM-MIC
Outline: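 Three clinical isolates per species (nail, blood, urine origin), grown in Sabouraud-dextrose 48 h at 37°C, were tested by CLSI M27-A3 broth microdilution in RPMI 1640 over 0.0625-32 mg/L. After 48 h at 37°C, MIC was the lowest concentration with no visible growth; the across-isolate value is a geometric mean MIC.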

Candida duobushaemulonii [5] = assay: Biofilm-growing cells, XTT assay, bMIC; assay type: cell-based; settings: for GM-bMIC: geometric mean, C. duobushaemulonii isolates; for bMIC: mature biofilm, 48 h, 50% inhibition of metabolic activity
Protocol: as §1

[6] = tested on: Candida haemulonii var. vulnera; assay: Biofilm-growing cells, XTT assay, bMIC; assay type: cell-based; settings: for GM-bMIC: geometric mean, C. haemulonii var. vulnera isolates; for bMIC: mature biofilm, 48 h, 50% inhibition of metabolic activity
Protocol: as §1

Candida haemulonii [7] = assay: Biofilm-growing cells, XTT assay, bMIC; assay type: cell-based; settings: for GM-bMIC: geometric mean, C. haemulonii isolates, values marked * do not include LIP Ch4 (>512); for bMIC: mature biofilm, 48 h, 50% inhibition of metabolic activity
Protocol: as §1

A549 cells = assay: Mammalian cell toxicity (MTT assay) and selectivity index; assay type: cell-based, Human; settings: MTT, 48 h incubation
Outline: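 A549 cells were exposed to compounds (0.0313–512 μg/mL) in DMEM for 48 h at 37 °C, 5% CO2. Viability was measured by MTT (3 h, dark), with formazan dissolved in DMSO and read at 450 nm. CC50 was derived, and SI calculated as A549 CC50 divided by C. haemulonii complex GM-MIC.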

| SMILES | Overall GM-bMIC [1] [mg/L] | GM-MIC (Candida duobushaemulonii [2]) [µg/mL] | MIC (Candida duobushaemulonii [2]; isolate LIP Ch1) [µg/mL] | MIC (Candida duobushaemulonii [2]; isolate LIP Ch6) [µg/mL] | MIC (Candida duobushaemulonii [2]; isolate LIP Ch8) [µg/mL] | GM-MIC [3] [µg/mL] | MIC ([3]; isolate LIP Ch5) [µg/mL] | MIC ([3]; isolate LIP Ch9) [µg/mL] | MIC ([3]; isolate LIP Ch11) [µg/mL] | GM-MIC (Candida haemulonii [4]) [µg/mL] | MIC (Candida haemulonii [4]; isolate LIP Ch4) [µg/mL] | MIC (Candida haemulonii [4]; isolate LIP Ch7) [µg/mL] | MIC (Candida haemulonii [4]; isolate LIP Ch12) [µg/mL] | Overall GM-MIC (C. haemulonii complex) [µg/mL] | MIC (C. haemulonii complex) [µM] | GM-bMIC (Candida duobushaemulonii [5]) [mg/L] | bMIC (Candida duobushaemulonii [5]; isolate LIP Ch1) [mg/L] | GM-bMIC [6] [mg/L] | bMIC ([6]; isolate LIP Ch9) [mg/L] | bMIC ([6]; isolate LIP Ch13) [mg/L] | further results |
| --- | --- | --- | --- | --- | --- | --- | --- | --- | --- | --- | --- | --- | --- | --- | --- | --- | --- | --- | --- | --- | --- |
| O.O.O.O.O.O.O=C([O-])CCCCCCC(=O)[O-].O=C([O-])CCCCCCC(=O)[O-].O=C([O-])CCCCCCC(=O)[O-].O=C([O-])CCCCCCC(=O)[O-].[Mn+2].[Mn+2].[Mn+2].[Mn+2].c1cnc2c(c1)ccc1cccnc12.c1cnc2c(c1)ccc1cccnc12.c1cnc2c(c1)ccc1cccnc12.c1cnc2c(c1)ccc1cccnc12.c1cnc2c(c1)ccc1cccnc12.c1cnc2c(c1)ccc1cccnc12.c1cnc2c(c1)ccc1cccnc12.c1cnc2c(c1)ccc1cccnc12 [compound 13, [Mn2(oda)(phen)4(H2O)2][Mn2(oda)(phen)4(oda)2].4H2O] | 8.72 | 2.52 | 2 | 4 | 2 | 2 | 2 | 2 | 2 | 2 | 2 | 2 | 2 | 2.16 | 0.87 | 5.04 | 4 | 8 | 4 | 8 | bMIC (Candida duobushaemulonii [5]; isolate LIP Ch6): 4 mg/L; bMIC (Candida duobushaemulonii [5]; isolate LIP Ch8): 8 mg/L; bMIC ([6]; isolate LIP Ch5): 16 mg/L; GM-bMIC (Candida haemulonii [7]): 22.63^* mg/L; bMIC (Candida haemulonii [7]; isolate LIP Ch4): >512 mg/L; bMIC (Candida haemulonii [7]; isolate LIP Ch7): 32 mg/L; bMIC (Candida haemulonii [7]; isolate LIP Ch14): 16 mg/L; A549 (CC50) (A549 cells): >512 µg/mL |
| O=C1C(=O)c2cccnc2-c2ncccc21.O=C1C(=O)c2cccnc2-c2ncccc21.[Ag+].[O-][Cl+3]([O-])([O-])[O-] [compound 15, [Ag(phendione)2]ClO4] | 16 | 2 | 2 | 2 | 2 | 1.26 | 2 | 1 | 1 | 1 | 1 | 1 | 1 | 1.36 | 2.16 | 10.08 | 8 | 32 | 32 | 32 | decrease in activity on going from planktonic to biofilm cells [1]: 11.8 fold; Overall GM-bMIC ([1]; in μM): 25.48 µM; bMIC (Candida duobushaemulonii [5]; isolate LIP Ch6): 32 mg/L; bMIC (Candida duobushaemulonii [5]; isolate LIP Ch8): 4 mg/L; bMIC ([6]; isolate LIP Ch5): 32 mg/L; GM-bMIC (Candida haemulonii [7]): 11.31^* mg/L; bMIC (Candida haemulonii [7]; isolate LIP Ch4): >512 mg/L; bMIC (Candida haemulonii [7]; isolate LIP Ch7): 8 mg/L; bMIC (Candida haemulonii [7]; isolate LIP Ch14): 16 mg/L; A549 (CC50) (A549 cells): 3.76 µg/mL |
| [Ag+].[O-][Cl+3]([O-])([O-])[O-].c1cnc2c(c1)ccc1cccnc12.c1cnc2c(c1)ccc1cccnc12 [compound 17, [Ag(phen)2]ClO4] | 12.34 | 1.59 | 2 | 1 | 2 | 0.63 | 1 | 0.5 | 0.5 | 1 | 1 | 1 | 1 | 1 | 1.76 | 10.08 | 16 | 8 | 0.5 | 8 | decrease in activity on going from planktonic to biofilm cells [1]: 12.3 fold; Overall GM-bMIC ([1]; in μM): 21.73 µM; GM-bMIC (Candida haemulonii [7]): 20.16 mg/L; bMIC (Candida haemulonii [7]; isolate LIP Ch4): 32 mg/L; bMIC (Candida haemulonii [7]; isolate LIP Ch7): 32 mg/L; bMIC (Candida haemulonii [7]; isolate LIP Ch14): 8 mg/L; A549 (CC50) (A549 cells): 2.07 µg/mL |

Source: paper PMC5504357, “Antifungal Potential of Copper(II), Manganese(II) and Silver(I) 1,10-Phenanthroline Chelates Against Multidrug-Resistant Fungal Species Forming the Candida haemulonii Complex: Impact on the Planktonic and Biofilm Lifestyles” (Frontiers in Microbiology, 2017)
